Test results taken from patent US20120003154A1, “ARYLOXYANILIDE DERIVATIVES” (priority 2009, published 2012).
Like-named read-outs stand apart in the source and are kept apart here.

Legend:
Wistar rat heart PBR = target: T1, Wistar rat heart PBR (Rattus norvegicus, UniProt P16257); experiment: In vitro potency assay (competition binding against [3H]PK-11195)
T1 construct: PK-11195; from tissue; host or cells: Wistar rat heart
Experimental: Affinity for PBR was screened using a method adapted from Le Fur et al (Life Sci. 1983; USA 33: 449-57).
Each test compound (dissolved in 50 mM Tris-HCl, pH 7.4, 10 mM MgCl2 containing 1% DMSO) competed for binding to Wistar rat heart PBR against 0.3 nM [^3H] […] The reaction was carried out in 50 mM Tris-HCl, pH 7.4 10 mM MgCl2 for 15 minutes at 25° C.

PBR = settings: Wilson et al Nuc. Med. Biol. 2008; cited from earlier work

CC(=O)N(Cc1ccccc1OCC[18F])c1cccnc1Oc1ccccc1 [Imaging Agent 1]
measured potency for PBR compared with [18F]-FE-PBR28 (Wistar rat heart PBR; relative to FE-PBR28): two orders of magnitude less

COc1ncccc1CN(C(=O)CF)c1ccccc1Oc1ccccc1 [Non-radioactive imaging agent 18, 2-Flouro-N-(2-methoxy-pyridin-3-ylmethyl)-N-(2-phenoxy-phenyl)-acetamide]
Ki (Wistar rat heart PBR): 3.77 nM

CC(=O)N(Cc1cccnc1OCCF)c1ccccc1Oc1ccccc1 [Non-radioactive imaging agent 19, N-[2-(2-Fluoro-ethoxy)-pyridin-3-ylmethyl]-N-(2-phenoxy-phenyl)-acetamide]
Ki (Wistar rat heart PBR; read-out: Ki): 1.02 nM

CC(=O)N(Cc1ccccc1OCCF)c1cccnc1Oc1ccccc1 [Non-radioactive imaging agent 1, N-[2(2-fluoroethoxy)benzyl]-N-(2-phenoxypyridin-3-yl)acetamide]
Ki (Wistar rat heart PBR; read-out: Ki): 4.24 nM

CC(=O)N(Cc1ccccc1OCC[18F])c1cnccc1Oc1ccccc1 [[^18F]-FE-PBR28]
affinity for PBR in vitro (PBR): subnanomolar
